Measured values reported in PubChem BioAssay AID1259407 (Chemical Carcinogenesis Research Information System (CCRIS), 2018).
The source made the active and inactive calls. The rule behind the calls is not given here.

System: CCRIS mutagenicity, Ames/micronucleus/aberration tests
Test: CCRIS mutagenicity studies
[1] = Test System: AMES SALMONELLA TYPHIMURIUM, Strain/Indicator: TA100, Metabolic Activation: NONE, Method: STANDARD PLATE
[2] = Test System: AMES SALMONELLA TYPHIMURIUM, Strain/Indicator: TA1537, Metabolic Activation: NONE, Method: STANDARD PLATE
[3] = Test System: AMES SALMONELLA TYPHIMURIUM, Strain/Indicator: TA1538, Metabolic Activation: NONE, Method: STANDARD PLATE
[4] = Test System: AMES SALMONELLA TYPHIMURIUM, Strain/Indicator: TA98, Metabolic Activation: NONE, Method: STANDARD PLATE
[5] = Test System: AMES SALMONELLA TYPHIMURIUM, Strain/Indicator: TA98, Metabolic Activation: RAT, LIVER, S-9, AROCLOR 1254, Method: STANDARD PLATE
[6] = Test System: AMES SALMONELLA TYPHIMURIUM, Strain/Indicator: TA100, Metabolic Activation: RAT, LIVER, S-9, AROCLOR 1254, Method: STANDARD PLATE
[7] = Test System: AMES SALMONELLA TYPHIMURIUM, Strain/Indicator: TA1535, Metabolic Activation: NONE, Method: STANDARD PLATE
[8] = Test System: AMES SALMONELLA TYPHIMURIUM, Strain/Indicator: TA1535, Metabolic Activation: RAT, LIVER, S-9, AROCLOR 1254, Method: STANDARD PLATE
[9] = Test System: AMES SALMONELLA TYPHIMURIUM, Strain/Indicator: TA1538, Metabolic Activation: RAT, LIVER, S-9, AROCLOR 1254, Method: STANDARD PLATE

Row | SMILES | mutagenic call [1] | mutagenic call [2] | mutagenic call [3] | mutagenic call [4] | mutagenic call [5] | mutagenic call [6] | mutagenic call [7] | mutagenic call [8] | mutagenic call [9] | other results
1 | C[n+]1ccn(CCC[n+]2ccc(C(N)=O)cc2)c1/C=N/O | inactive; negative | inactive; negative | inactive; negative |  |  |  |  |  |  | mutagenic call (Test System: AMES SALMONELLA TYPHIMURIUM, Strain/Indicator: TA97, Metabolic Activation: NONE, Method: STANDARD PLATE): inactive; negative; mutagenic call (Test System: AMES SALMONELLA TYPHIMURIUM, Strain/Indicator: TA97, Metabolic Activation: S-9, Method: STANDARD PLATE): inactive; negative; mutagenic call (Test System: AMES SALMONELLA TYPHIMURIUM, Strain/Indicator: TA100, Metabolic Activation: S-9, Method: STANDARD PLATE): inactive; negative; mutagenic call (Test System: AMES SALMONELLA TYPHIMURIUM, Strain/Indicator: TA104, Metabolic Activation: NONE, Method: STANDARD PLATE): inactive; negative; mutagenic call (Test System: AMES SALMONELLA TYPHIMURIUM, Strain/Indicator: TA104, Metabolic Activation: S-9, Method: STANDARD PLATE): inactive; negative; mutagenic call (Test System: AMES SALMONELLA TYPHIMURIUM, Strain/Indicator: TA1537, Metabolic Activation: S-9, Method: STANDARD PLATE): inactive; negative; mutagenic call (Test System: AMES SALMONELLA TYPHIMURIUM, Strain/Indicator: TA1538, Metabolic Activation: S-9, Method: STANDARD PLATE): inactive; negative
2 | CCCCCC(=O)O[C@]1(C(C)=O)CC[C@H]2[C@@H]3CCC4=CC(=O)CC[C@@H]4[C@H]3CC[C@@]21C | inactive; negative | inactive; negative | inactive; negative | inactive; negative | inactive; negative | inactive; negative | inactive; negative | inactive; negative | inactive; negative | mutagenic call (Test System: AMES SALMONELLA TYPHIMURIUM, Strain/Indicator: TA1537, Metabolic Activation: RAT, LIVER, S-9, AROCLOR 1254, Method: STANDARD PLATE): inactive; negative
3 | CN(C)c1ccc(C(=C2C=CC(=[N+](C)C)C=C2)c2c(O)c(S(=O)(=O)[O-])cc3cc(S(=O)(=O)O)ccc23)cc1 | inactive; negative |  | inactive; negative | inactive; negative | inactive; negative | inactive; negative | inactive; negative | inactive; negative | inactive; negative | 
4 | CC(=O)OC[C@]12C[C@H](OC(=O)CC(C)C)C(C)=C[C@H]1O[C@@H]1[C@H](O)[C@@H](OC(C)=O)[C@@]2(C)[C@]12CO2 |  |  |  |  |  |  |  |  |  | mutagenic call (Test System: AMES SALMONELLA TYPHIMURIUM, Strain/Indicator: TA98, Metabolic Activation: RAT LIVER S-9, DELOR 103, Method: STANDARD PLATE): inactive; negative; mutagenic call (Test System: AMES SALMONELLA TYPHIMURIUM, Strain/Indicator: TA98, Metabolic Activation: RAT, LIVER, MICROSOMES, PHENOBARBITAL, Method: STANDARD PLATE): inactive; negative; mutagenic call (Test System: AMES SALMONELLA TYPHIMURIUM, Strain/Indicator: TA100, Metabolic Activation: NONE, Method: PREINCUBATION): inactive; negative; mutagenic call (Test System: AMES SALMONELLA TYPHIMURIUM, Strain/Indicator: TA100, Metabolic Activation: RAT LIVER S-9, DELOR 103, Method: STANDARD PLATE): inactive; negative; mutagenic call (Test System: AMES SALMONELLA TYPHIMURIUM, Strain/Indicator: TA100, Metabolic Activation: RAT, LIVER, MICROSOMES, PHENOBARBITAL, Method: STANDARD PLATE): inactive; negative; mutagenic call (Test System: AMES SALMONELLA TYPHIMURIUM, Strain/Indicator: TA100, Metabolic Activation: RAT, LIVER, S-9, PHENOBARBITAL, Method: PREINCUBATION): inactive; negative; mutagenic call (Test System: CHINESE HAMSTER, Strain/Indicator: V-79/6-THIOGUANINE, Metabolic Activation: NONE, Method: STANDARD PLATE): active; positive; mutagenic call (Test System: CHINESE HAMSTER, Strain/Indicator: V-79/6-THIOGUANINE, Metabolic Activation: S-9, Method: STANDARD PLATE): active; positive
